Assay results from paper PMC5420810 (Annals of Clinical and Translational Neurology, 2017).

Legend:
Scn1a +/− mice [1] = assay: Hyperthermia‐induced seizures; assay type: in vivo, mouse; conditions: for Effect on hyperthermia‐induced seizure response: single‐point ip doses targeting human therapeutic range (Table 1)
Scn1a +/− mice [2] = assay: Survival analysis; assay type: in vivo, mouse; conditions: for Mice surviving through P30: naïve mice, chow treatment from P18, untreated 67% (14/21)
Dravet syndrome patients = assay: Retrospective chart review of anticonvulsant responses in Dravet syndrome; assay type: in vivo, human; conditions: for Patients with effective response with tolerable side effects / Effectiveness in Dravet syndrome cohort: patient or parent‐reported
[3] = Pharmacokinetic analysis of clobazam and stiripentol after a single ip injection; assay type: in vivo, Wild‐type and Scn1a +/− mice
Scn1a +/− mice [4] = assay: Spontaneous seizure; assay type: in vivo, mouse; conditions: for Effect on spontaneous GTCS frequency: subchronic treatment in chow, naïve mice, 60 h recording
Scn1a +/− mice [5] = assay: Spontaneous GTCS following hyperthermic seizure priming; assay type: in vivo, mouse; conditions: hyperthermia‐primed, clobazam 160 mg/kg chow, 60 h P19–P21 (4/16); untreated 61%
[6] = Plasma drug concentration after subchronic oral treatment in chow; conditions: for Subchronic treatment plasma concentration: mg/kg chow: carbamazepine 7500, clobazam 160 (NCLB = metabolite after clobazam), lamotrigine 125, levetiracetam 1350, phenobarbital 300, stiripentol 4000, topiramate 850, valproic acid 4500, mean ± SEM, n = 5–8
[7] = single ip 10 mg/kg clobazam, analyte = labelled substance

For `NC(=O)N1c2ccccc2C=Cc2ccccc21` [Carbamazepine], the “Effect on hyperthermia‐induced seizure response” value (Scn1a +/− mice [1]) was “no effect”, the “Mice surviving through P30” value (Scn1a +/− mice [2]) was 100% and the “Patients with significant worsening of seizures” value (Dravet syndrome patients; Dravet syndrome cohort) was “approximately 50%”. For the same compound, the “Patients with significant worsening of seizures (patients/patients trialed)” value (Dravet syndrome patients; Dravet syndrome cohort) was 16/32.

In the case of `CN1C(=O)CC(=O)N(c2ccccc2)c2cc(Cl)ccc21` [Clobazam], the AUC(0-inf) ([3]; mouse, plasma, ip, 10 mg/kg) is reported as 2.58 µg·h/mL, the half-life ([3]; mouse, plasma, ip, 10 mg/kg) is reported as 0.633 h and the “Protection from hyperthermia‐induced GTCS” value (from here on “Protection”) (Scn1a +/− mice [1]; clobazam 0.1 mg/kg ip, P14–P16) is reported as 37.5%. The “Protection” value (Scn1a +/− mice [1]; clobazam 1 mg/kg ip) was 50%, the “Protection” value (Scn1a +/− mice [1]; clobazam 10 mg/kg ip) was “Complete protection” and the “Effect on spontaneous GTCS frequency” value (Scn1a +/− mice [4]) was “did not result in a statistically significant change”. For the same compound, the “Mice exhibiting spontaneous GTCS” value (Scn1a +/− mice [5]) was 25%, the “Cases with seizure reduction” value (Dravet syndrome patients; Dravet syndrome cohort) was about 75% and the “Patients with effective response with tolerable side effects” value (“Patients with effective response” for short) (Dravet syndrome patients; Dravet syndrome cohort) was over 50%. For the same compound, the “Subchronic treatment plasma concentration” value [6] was “BQL”.

In the case of `Nc1nnc(-c2cccc(Cl)c2Cl)c(N)n1` [Lamotrigine], the “Mice that experienced a hyperthermia‐induced GTCS” value (Scn1a +/− mice [1]; lamotrigine 20 mg/kg ip, 12 mice, vehicle 10 of 12) is reported as 12 mice, the “Threshold temperature for hyperthermia‐induced GTCS” value (Scn1a +/− mice [1]; lamotrigine 20 mg/kg ip, vehicle C 41.8 ± 0.1) is reported as 40.5 ± 0.3 °C and the “Effect on hyperthermia‐induced seizure response” value (Scn1a +/− mice [1]) is reported as “significantly worsened”. For the same compound, the “Seizures that escalated to tonic hindlimb extension” value (Scn1a +/− mice [4]; naïve cohort, lamotrigine chow, untreated 33% (17/52)) was “None of the 155 seizures”, the “Effect on spontaneous GTCS frequency” value (Scn1a +/− mice [4]) was “significantly worsened” and the “Survival through P42 (6‐week survival)” value (Scn1a +/− mice [2]; lamotrigine chow from P18, untreated 68% (15/22)) was “completely prevented lethality”. The “Patients with significant worsening of seizures” value (Dravet syndrome patients; Dravet syndrome cohort) was “approximately 50%” and the “Patients with significant worsening of seizures (patients/patients trialed)” value (Dravet syndrome patients; Dravet syndrome cohort) was 25/50.

For `CC[C@@H](C(N)=O)N1CCCC1=O` [Levetiracetam], the “Effect on spontaneous GTCS frequency” value (Scn1a +/− mice [4]) was “did not result in a statistically significant change”, the “Mice surviving through P30” value (Scn1a +/− mice [2]) was 100% and the “Effectiveness in Dravet syndrome cohort” value (Dravet syndrome patients) was “limited effectiveness”.

For `O=C1CC(=O)N(c2ccccc2)c2cc(Cl)ccc2N1` [NCLB, N‐desmethylclobazam], the Cmax in plasma [3, 7] was 3100 ng/mL, the tmax [3, 7] was 1.5 h and the “Subchronic treatment plasma concentration” value [6] was 0.6 ± 0.03 µg/mL.

With `CCC1(c2ccccc2)C(=O)NC(=O)NC1=O` [Phenobarbital] the “Effect on spontaneous GTCS frequency” value (Scn1a +/− mice [4]) was “did not result in a statistically significant change”, the “Effectiveness in Dravet syndrome cohort” value (Dravet syndrome patients) was “limited effectiveness” and the concentration at 24 h ([6]; mouse, plasma, oral, 300 mg per kg of chow, Plasma level, hyperthermia‐primed mice, phenobarbital chow, 24 h post seizure induction, primed) was 17800 ± 3200 ng/mL.

With `O=C1NC(=O)C(c2ccccc2)(c2ccccc2)N1` [Phenytoin] the “Effect on hyperthermia‐induced seizure response” value (Scn1a +/− mice [1]) was “no effect”, the “Patients with significant worsening of seizures” value (Dravet syndrome patients; Dravet syndrome cohort) was “approximately 50%” and the “Patients with significant worsening of seizures (patients/patients trialed)” value (Dravet syndrome patients; Dravet syndrome cohort) was 15/31.

`CC(C)(C)C(O)/C=C/c1ccc2c(c1)OCO2` (stereo not shown) [Stiripentol] gave an AUC(0-inf) ([3]; mouse, plasma, ip, 100 mg/kg) of 210 µg·h/mL, a Cmax ([3]; mouse, plasma, ip, 100 mg/kg) of 46000 ng/mL and a half-life ([3]; mouse, plasma, ip, 100 mg/kg) of 2.82 h. The tmax ([3]; mouse, plasma, ip, 100 mg/kg) was 1.5 h, the “Effect on hyperthermia‐induced seizure response” value (Scn1a +/− mice [1]) was “no effect” and the “Effect on hyperthermia seizure threshold temperature vs vehicle” value (Scn1a +/− mice [1]; stiripentol 100 mg/kg ip) was “increased threshold temperature”. For the same compound, the “Protected from hyperthermia‐induced GTCS” value (Scn1a +/− mice [1]; stiripentol 300 mg/kg ip (3/13)) was 23% and the “Patients with effective response” value (Dravet syndrome patients; Dravet syndrome cohort) was over 50%.

With `CC1(C)O[C@@H]2[C@@H](CO[C@@]3(COS(N)(=O)=O)OC(C)(C)O[C@@H]23)O1` [Topiramate] the “Effect on hyperthermia‐induced seizure response” value (Scn1a +/− mice [1]) was “no effect”, the “Mice surviving through P30” value (Scn1a +/− mice [2]) was 100% and the “Patients with effective response” value (Dravet syndrome patients; Dravet syndrome cohort) was “less than 45%”.

In the case of `CCCC(CCC)C(=O)O` [Valproic Acid], the “Effect on hyperthermia‐induced seizure response” value (Scn1a +/− mice [1]) is reported as “no effect”, the “Protection” value (Scn1a +/− mice [1]; valproic acid 100 mg/kg ip) is reported as 30% and the “Protection” value (Scn1a +/− mice [1]; valproic acid 200 mg/kg ip) is reported as 50%. The “Protection” value (Scn1a +/− mice [1]; valproic acid 300 mg/kg ip) was 100%, the “Effect on spontaneous GTCS frequency” value (Scn1a +/− mice [4]) was “did not result in a statistically significant change” and the “Patients with effective response” value (Dravet syndrome patients; Dravet syndrome cohort) was over 50%.

With `NS(=O)(=O)Cc1noc2ccccc12` [Zonisamide] the “Effectiveness in Dravet syndrome cohort” value (Dravet syndrome patients) was “limited effectiveness”.

With `O=C1CN=C(c2ccccc2Cl)c2cc([N+](=O)[O-])ccc2N1` [clonazepam] the “Patients with effective response” value (Dravet syndrome patients; Dravet syndrome cohort) was “less than 45%”.

With `NC(=O)N1c2ccccc2CC(=O)c2ccccc21` [oxcarbazepine] the “Patients with significant worsening of seizures” value (Dravet syndrome patients; Dravet syndrome cohort) was “approximately 50%” and the “Patients with significant worsening of seizures (patients/patients trialed)” value (Dravet syndrome patients; Dravet syndrome cohort) was 28/50.
